Results published in US10080811B2, “Diagnostic marker compounds and their use” (University of Leeds, priority 2012, dated 2018).

Legend:
[1] = tested on: SH-SY5Y cells; conditions: 500 μM H2O2 24 hours before, 24 hours exposure
Method: Cytoprotective effect tests were performed on SH-SY5Y cells that had previously been exposed to hydrogen peroxide for 24 hours.

[2] = tested on: C57BL/6J mice; conditions: IP injection
Method: After 24 hours mice were perfused transcardially with 0.9% saline followed by 4% paraformaldehyde. Brains, arteries, heart, liver kidneys were removed, post-fixed and […] sections were cut on a vibratome (Leica Microsystems, Germany) The sections were mounted on slides, dried at 4° C., cover slipped using vectashield mounting medium and examined using a Zeiss laser scanning confocal microscope (LSM 510).

**Q.** Which results are given for `O=[N+]([O-])[O-].O=[N+]([O-])[O-].O=[N+]([O-])[O-].[Ce+3]` [cerium nitrate]?
**A.** cytoprotective potency, comparison of the two nitrates [1]: more potent antioxidant-based cytoprotective agent compared to europium nitrate; effect on hydrogen peroxide's cytotoxicity ([1]; n=80): significantly inhibiting hydrogen peroxide's cytotoxicity

**Q.** With `O=[N+]([O-])[O-].O=[N+]([O-])[O-].O=[N+]([O-])[O-].[Eu+3]` [europium nitrate] as the molecule, how does the “blood brain barrier passage (labelling in the brain tissue)” value [2] read?
**A.** The value was “cross the blood brain barrier”.

**Q.** And the “highest number of fluorescent peaks, brain tissue” value ([2]; 100 μM solution, 24 hours)?
**A.** Its value is at least 20 peaks per 100 μm^2 area.

**Q.** What about the “highest number of fluorescent peaks, heart tissue” value ([2]; 100 μM solution, 24 hours) of the same molecule?
**A.** Its value is at most 1 peaks in a 100 μm^2 area.

**Q.** What about the “highest number of fluorescent peaks, liver tissue” value ([2]; 100 μM solution, 24 hours) of the same molecule?
**A.** Its value is under 10 peaks in a 100 μm^2 area.

**Q.** What about the “highest number of fluorescent peaks, lung tissue” value ([2]; 100 μM solution, 24 hours) of the same molecule?
**A.** Its value is at most 1 peaks in a 100 μm^2 area.

**Q.** What about the “uptake into hepatocytes in liver tissue” value ([2]; higher magnifications) of the same molecule?
**A.** Its value is “had entered the hepatocytes”.
